Laboratory results: patent publication US6613317B1, “Volatile attractants for diabrotica species” (priority 1988, dated 2003)

Experiments:
D. u. howardi adults = type: in vivo, Diabrotica undecimpunctata howardi; settings: 1% incorporated into TEX×PEP bait, petri-dish tests
Excerpt: A noncucurbit carrier, 10-mesh corn grits (71% of which passed through a 2-mm screen), was obtained from Illinois Cereal Mills, Paris, Ill. (designated as pesticide carrier grits, 980). This carrier was impregnated with different levels of cucurbitacins by addition of varying amounts of a chloroform extract of AND×MAX fruit containing 0.12% cucurbitacins B and D (Metcalf, et al., Proc. Natl. Acad. Sci. USA, 77:3769-3772 (1980), Metcalf, et al., Environ. Entomol., 11:921-927 (1982)). The cucurbitacin-containing areas were scraped from plates, extracted in anhydrous methanol, centrifuged, and the UV absorption at 210 nm determined by UV spectrophotometry. Content of cucurbitacins was quantified from standard curves of pure cucurbitacins B, D, E and I, and E-glycoside (Metcalf, et al., Proc. Natl. Acad. Sci. USA, 77:3769-3772 (1980), Metcalf, et al., Environ. Entomol., 11:921-927 (1982)).
The various dried, ground, and insecticide-treated baits were given preliminary field evaluation by placing uniform amounts in petri-dish halves (150-mm diameter) that were placed at random on the ground in cucurbit and corn rows heavily infested ith SCR, WCR, and SCB adults. Ten dishes were used for each treatment; the maximum dosage of dried baits used was 300 mg per dish, equivalent to […]. Mortality counts of adult beetles in the dishes were made after 20-40 h.

[1] = test system: western corn rootworm (WCR) adults; experiment: Sticky trap attraction in sweet corn plots (Example 1); type: in vivo, Diabrotica virgifera virgifera; settings: August first year, single compounds 100 mg per trap
Method in brief: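 Field trapping in sweet-corn plots beside a Blue Hubbard squash trap crop; lures on mineral-oil-impregnated cotton wicks atop sticky paper-carton traps on 1-m posts, 4 replicates in randomized complete blocks. Beetles counted after 24 h; VIPAE/VIP/TIC mixtures and single components at 1–300 mg per trap, ANOVA/Duncan at P=0.05.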

Compound: C=CCc1ccc(O)c(OC)c1 [XXIV, eugenol]
- increase in the kill of SCR beetles (D. u. howardi adults): 4 fold
- Mean number of WCR per trap (±standard deviation) ([1]; South Farms, 24 h, mixture 20 mg of each component, n = 4): 2.8 ± 1.0 per trap
- relative percent activity of the mean WCR trap catch as compared with the highest mean value in the column ([1]; mixture 20 mg each component): 41%
